In patent publication US20190119200A1, “TERTIARY AMIDES AND METHOD OF USE” (AbbVie Inc., priority 2016, published 2019):

Experiments:
LPAR1 [1] = molecular target: T1, LPAR1 (Homo sapiens, UniProt Q92633); assay: LPAR1 Arrestin Assay (arrestin reporter assay); format: cell-based; details: U2OS cells stably expressing the LPAR1 receptor, 200 nM 18:1 LPA (EC80); for Emax: read-out: Maximum Inhibition
T1 construct: host or cells: U2OS
Experimental: One day prior to the experiment, frozen U2OS cells stably expressing the LPAR1 receptor (Life Technologies, Grand Island, N.Y., #K1519A) were thawed, centrifuged at 1,000 rpm for 5 minutes to remove DMSO, and resuspended in FreeStyle™ media (Gibco, Grand Island, N.Y.). Forty microliters of cells were plated into PDL-coated 384-well plates (Greiner Bio-One, Monroe, N.C.) at 10,000 cells/well, and then the plates were incubated overnight in humidified 5% CO2 at 37° C. Test compounds were dissolved in DMSO, and 12-point, 1:3 dilution CRCs were prepared in duplicate; daughter plates were prepared by aliquoting 0.8 μL/well of test compound dilutions into 384-well plates. On the day of the assay, the daughter plates were diluted to 6× stocks using HEPES-buffered HBSS, then 10 μL of 6× test compounds were added to the cells, and the plates were incubated at 37° C. for one hour. After this 1 hour incubation, 10 μL of a 6× stock of the LPAR1 agonist, 18:1 LPA (Avanti Polar Lipids, Alabaster, Ala.), was prepared in HEPES-buffered HBSS+0.1% fatty acid-free BSA (Sigma, St. Louis, Mo.). The 6×LPA was added to all wells for a final concentration of 200 nM, which corresponds to the 18:1 LPA EC80 in this arrestin assay. The final DMSO concentration in the assay plate was 0.1%, and the final BSA concentration was 0.02%. After addition of LPA to all wells, the assay plates were incubated in humidified 5% CO2 at 37° C. for five hours. During the incubation period, 6× dye from the LiveBLAzer™-FRET B/G with CCF4-AM kit (Life Technologies, Grand Island, N.Y.) was prepared according to manufacturers' instructions. At the end of the 5 hour compound incubation, 10 μL of 6× dye was added to each well, and the assay plate was incubated for two hours in the dark at room temperature. Throughout the assay procedure, all volume additions were performed with a Biomek® NX liquid handler (Beckman Coulter, Indianapolis, Ind.). After the 2 hour dye-load, fluorescence was measured on an EnVision® Multilabel Plate Reader (Perkin Elmer, Waltham, Mass.) with an excitation filter at 409/20 nm and emission filters at 460/40 nm and 530/30 nm. Data processing was performed as recommended by the LiveBLAzer™-FRET B/G with CCF4-AM kit manual; all test compound CRCs were performed in duplicate with n≥3.

LPAR1 [2] = molecular target: T1, LPAR1; assay: IP-One HTRF Assay; format: cell-based; details: U2OS cells stably expressing LPAR1, LPA stimulation, IP-One Tb HTRF kit; for Emax: read-out: Maximum Inhibition
Outline: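 U2OS cells stably expressing LPAR1 were preincubated with compound (11-point 3-fold series from 2 mM DMSO stock) for 20 min at 37 °C, then stimulated with LPA for 2 h at 37 °C. IP1 accumulation was read by IP-One HTRF (665/615 nm ratio). IC50 came from four-parameter logistic Hill fits.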

T1 sequence (Q92633 whole entry): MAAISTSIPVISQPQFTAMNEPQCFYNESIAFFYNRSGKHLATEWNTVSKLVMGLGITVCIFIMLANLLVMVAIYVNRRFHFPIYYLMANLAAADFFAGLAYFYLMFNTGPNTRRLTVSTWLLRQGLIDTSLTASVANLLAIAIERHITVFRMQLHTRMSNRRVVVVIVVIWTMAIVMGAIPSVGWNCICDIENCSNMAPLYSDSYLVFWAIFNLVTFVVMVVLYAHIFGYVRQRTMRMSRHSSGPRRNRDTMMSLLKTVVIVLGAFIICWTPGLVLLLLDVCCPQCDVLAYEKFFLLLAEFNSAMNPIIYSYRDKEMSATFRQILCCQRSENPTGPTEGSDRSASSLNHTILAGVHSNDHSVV

Structure (SMILES)	IC50 (LPAR1 [1]) [nM]	Emax (LPAR1 [1]) [%]	IC50 (LPAR1 [2]) [nM]	Emax (LPAR1 [2]) [%]
COc1cc(C(=O)N(CCCCC(=O)O)CCCc2cccc(Cl)c2)cc(OC)c1C [Example 38, 5-{[3-(3-chlorophenyl)propyl](3,5-dimethoxy-4-methylbenzoyl)amino}pentanoic Acid]	26	114	194	90
COc1cc(C(=O)N(CCCc2ccccc2)CCSCC(=O)O)cc(OC)c1C [Example 44, ({2-[(3,5-dimethoxy-4-methylbenzoyl)(3-phenylpropyl)amino]ethyl}sulfanyl)acetic Acid]	69	114	223	80
COc1cc(C(=O)N(CCCc2ccccc2)CCOCP(=O)(O)O)cc(OC)c1C [Example 50, ({2-[(3,5-dimethoxy-4-methylbenzoyl)(3-phenylpropyl)amino]ethoxy}methyl)phosphonic Acid]	1	103	3	85
COc1cc(C(=O)N(CCCc2ccccc2)CCCC(C)(C)C(=O)O)cc(OC)c1C [Example 57, 5-[(3,5-dimethoxy-4-methylbenzoyl)(3-phenylpropyl)amino]-2,2-dimethylpentanoic Acid]	4	103	62	95
COc1cc(C(=O)N(CCCc2ccccc2)CCSCCC(=O)O)cc(OC)c1C [Example 60, 3-({2-[(3,5-dimethoxy-4-methylbenzoyl)(3-phenylpropyl)amino]ethyl}sulfanyl)propanoic Acid]	308	110	208	82
COc1cc(C(=O)N(CCCc2ccccc2)CCSC(C)CC(=O)O)cc(OC)c1C (stereo not drawn) [Example 62, 3-({2-[(3,5-dimethoxy-4-methylbenzoyl)(3-phenylpropyl)amino]ethyl}sulfanyl)butanoic Acid]	39	114	291	75
COc1cc(OC)cc(C(=O)N(CCCCC(=O)O)CCCc2cccc(Cl)c2)c1 [Example 91, 5-{[3-(3-chlorophenyl)propyl](3,5-dimethoxybenzoyl)amino}pentanoic Acid]	293	120	285	70
COc1cc(C(=O)N(CCCc2cccc(Cl)c2)CCOCC(=O)O)cc(OC)c1C [Example 109, (2-{[3-(3-chlorophenyl)propyl](3,5-dimethoxy-4-methylbenzoyl)amino}ethoxy)acetic Acid]	139	111	809	85
COc1cc(C(=O)N(CCCc2ccccc2F)CCOCC(=O)O)cc(OC)c1C [Example 110, (2-{(3,5-dimethoxy-4-methylbenzoyl)[3-(2-fluorophenyl)propyl]amino}ethoxy)acetic Acid]	706	110	902	82
COc1cc(C(=O)N(CCCCC(=O)NS(C)(=O)=O)CCCc2ccccc2)cc(OC)c1C [Example 111, N-{5-[(methanesulfonyl)amino]-5-oxopentyl}-3,5-dimethoxy-4-methyl-N-(3-phenylpropyl)benzamide]	93	116	570	80
COc1ccc(C2(C(=O)N(CCCc3ccccc3)CCSCC(=O)O)CC2)cc1 [Example 115, [(2-{[1-(4-methoxyphenyl)cyclopropane-1-carbonyl](3-phenylpropyl)amino}ethyl)sulfanyl]acetic Acid]	1080	104	2910	71
COc1cc(C(=O)N(CCCc2ccccc2F)CCSCC(=O)O)cc(OC)c1C [Example 116, [(2-{(3,5-dimethoxy-4-methylbenzoyl)[3-(2-fluorophenyl)propyl]amino}ethyl)sulfanyl]acetic Acid]	281	108	344	81
COc1cc(C(=O)N(CCCc2cccc(F)c2)CCSCC(=O)O)cc(OC)c1C [Example 117, [(2-{(3,5-dimethoxy-4-methylbenzoyl)[3-(3-fluorophenyl)propyl]amino}ethyl)sulfanyl]acetic Acid]	103	116	473	85
COc1cc(C(=O)N(CCCc2cccc(Cl)c2)CCSCC(=O)O)cc(OC)c1C [Example 122, [(2-{[3-(3-chlorophenyl)propyl](3,5-dimethoxy-4-methylbenzoyl)amino}ethyl)sulfanyl]acetic Acid]	152	127	134	78
COc1cc(C(=O)N(CCCc2cccc(F)c2)CCOCC(=O)O)cc(OC)c1C [Example 129, (2-{(3,5-dimethoxy-4-methylbenzoyl)[3-(3-fluorophenyl)propyl]amino}ethoxy)acetic Acid]	218	124	1310	96
COc1cc(C(=O)N(CCCc2ccccc2Cl)CCOCC(=O)O)cc(OC)c1C [Example 131, (2-{[3-(2-chlorophenyl)propyl](3,5-dimethoxy-4-methylbenzoyl)amino}ethoxy)acetic Acid]	2140	120	1480	101
COc1cc(C(=O)N(CCCc2ccc(C)o2)CCSCC(=O)O)cc(OC)c1C [Example 132, [(2-{(3,5-dimethoxy-4-methylbenzoyl)[3-(5-methylfuran-2-yl)propyl]amino}ethyl)sulfanyl]acetic Acid]	490	126	220	80
COc1cc(C(=O)N(CCCc2ccccc2)CCCC(C)(O)C(=O)O)cc(OC)c1C (stereo not drawn) [Example 155, 5-[(3,5-dimethoxy-4-methylbenzoyl)(3-phenylpropyl)amino]-2-hydroxy-2-methylpentanoic Acid]	401	125	663	83
COc1cc(C(=O)N(CCCc2ccccc2)CCOCC(=O)NS(C)(=O)=O)cc(OC)c1C [Example 157, N-(2-{2-[(methanesulfonyl)amino]-2-oxoethoxy}ethyl)-3,5-dimethoxy-4-methyl-N-(3-phenylpropyl)benzamide]	108	128	920	75
COc1cc(C(=O)N(CCCCC(=O)O)CCCc2ccco2)cc(OC)c1C [Example 173, 5-{(3,5-dimethoxy-4-methylbenzoyl)[3-(furan-2-yl)propyl]amino}pentanoic Acid]	295	122	523	75
COc1cc(C(=O)N(CCCCC(=O)O)CCCc2ccc(Cl)o2)cc(OC)c1C [Example 185, 5-{[3-(5-chlorofuran-2-yl)propyl](3,5-dimethoxy-4-methylbenzoyl)amino}pentanoic Acid]	288	122	325	73
